Assay results as given in patent US10683290B2, “Tricyclic compounds as anticancer agents” (BRISTOL-MYERS SQUIBB COMPANY, priority 2015, dated 2020).

molecular target: BRD4 (Homo sapiens, UniProt O60885); assay: biochemical; type: binding; details: FRET BRD4 IC50 (nM), one of the FRET assays described

Structure (SMILES) | IC50 [nM]
Cc1nnn(C)c1-c1ccc2c3ncc(C(C)(C)O)cc3n([C@H](c3ccccc3F)C3CCOCC3)c2c1 [Example 9, 2-[7-(dimethyl-1H-1,2,3-triazol-5-yl)-5-[(S)-(2-fluorophenyl)(oxan-4-yl)methyl]-5H-pyrido[3,2-b]indol-3-yl]propan-2-ol] | < 5

same assay, conditions: one of the FRET assays described; read-out: FRET BRD4 IC50

Structure (SMILES) | IC50 [nM]
[2H]C([2H])([2H])c1nnn(C)c1-c1ccc2c3ncc(C(C)(C)O)cc3n(C(c3cc(C)on3)C3CCOCC3)c2c1 (single isomer, unassigned) [Example 74, 2-{5-[(5-methyl-1,2-oxazol-3-yl)(oxan-4-yl)methyl]-7-[4-(^2H3)methyl-1-methyl-1H-1,2,3-triazol-5-yl]-5H-pyrido[3,2-b]indol-3-yl}propan-2-ol] | < 1500
Cc1noc(C)c1-c1ccc2c3ncc(C(C)(C)O)cc3n([C@H](c3ccccc3)C3CCOCC3)c2c1F [Example 17, 2-[7-(Dimethyl-1,2-oxazol-4-yl)-6-fluoro-5-[(S)-oxan-4-yl(phenyl)methyl]-5H-pyrido[3,2-b]indol-3-yl]propan-2-ol] | < 5
Cc1nnn(C)c1-c1cc2c(cc1F)c1ncc(C(C)(O)C3CC3)cc1n2[C@H](c1ccccc1F)C1CCOCC1 (single isomer, unassigned) [Example 23] | < 5
Cc1nnn(C)c1-c1cc2c(cc1F)c1ncc(C(C)(C)O)cc1n2C(c1ccc(F)cn1)C1CCOCC1 (single isomer, unassigned) [Example 70, 2-[7-(dimethyl-1H-1,2,3-triazol-5-yl)-8-fluoro-5-[(5-fluoropyridin-2-yl)(oxan-4-yl)methyl]-5H-pyrido[3,2-b]indol-3-yl]propan-2-ol] | < 5
Cc1nnn(C)c1-c1cc2c(cc1F)c1ncc(C(C)(C)O)cc1n2C(c1ncccn1)C1CCOCC1 (single isomer, unassigned) [Example 55] | < 1500
[2H]C([2H])([2H])c1nnn(C)c1-c1cc2c(cc1F)c1ncc(C(C)(C)O)cc1n2C(CCC)c1ncccc1F (single isomer, unassigned) [Example 38, 2-{8-fluoro-5-[1-(3-fluoropyridin-2-yl)butyl]-7-[4-(^2H3)methyl-1-methyl-1H-1,2,3-triazol-5-yl}-5H-pyrido[3,2-b]indol-3-yl]propan-2-ol] | < 1
Cc1nnn(C)c1-c1cc(Cl)c2c3ncc(C(C)(C)O)cc3n(C(CCC(F)(F)F)CCC(F)(F)F)c2c1 [Example 12, 2-[9-Chloro-7-(dimethyl-1H-1,2,3-triazol-5-yl)-5-(1,1,1,7,7,7-hexafluoroheptan-4-yl)-5H-pyrido[3,2-b]indol-3-yl]propan-2-ol] | < 5
Cc1nnn(C)c1-c1ccc2c3ncc(C(C)(C)O)cc3n([C@H](c3ccccc3)C3CCOCC3)c2c1 [Example 8, 2-[7-(dimethyl-1H-1,2,3-triazol-5-yl)-5-[(S)-oxan-4-yl(phenyl)methyl]-5H-pyrido[3,2-b]indol-3-yl]propan-2-ol] | < 1
[2H]C([2H])([2H])c1nnn(C)c1-c1cc2c(cc1F)c1ncc(C(C)(C)O)cc1n2C(c1ncccc1OC)C1CCOCC1 (single isomer, unassigned) [Example 40, 2-{8-fluoro-5-[(3-methoxypyridin-2-yl)(oxan-4-yl)methyl}-7-[4-(^2H3)methyl-1-methyl-1H-1,2,3-triazol-5-yl]-5H-pyrido[3,2-b]indol-3-yl]propan-2-ol] | < 1500
[2H]C([2H])([2H])c1nnn(C)c1-c1cc2c(cc1F)c1ncc(C(C)(C)O)cc1n2C(c1cc(C)ccn1)C1CCOCC1 (single isomer, unassigned) [Example 53, 2-{8-fluoro-7-[4-(^2H3)methyl-1-methyl-1H-1,2,3-triazol-5-yl]-5-[(4-methylpyridin-2-yl)(oxan-4-yl)methyl]-5H-pyrido[3,2-b]indol-3-yl}propan-2-ol] | < 1500
[2H]C([2H])([2H])c1nnn(C)c1-c1cc2c(cc1F)c1ncc(C(C)(C)O)cc1n2C(c1ccccn1)C1CCOCC1 (single isomer, unassigned) [Example 36, 2-{8-fluoro-7-[4-(^2H3)methyl-1-methyl-1H-1,2,3-triazol-5-yl}-5-[oxan-4-yl(pyridin-2-yl)methyl]-5H-pyrido[3,2-b]indol-3-yl]propan-2-ol] | < 1
